Consider one compound from patent publication US20220226321A1, “INHIBITOR OF MNK FOR THE TREATMENT OF NEUROPATHIC PAIN” (Board of Regents, The University of Texas System, priority 2019, published 2022).

SMILES strings stand for the structures. pIC50: −log10 of the molar value. Entries after “also recorded” stand apart in the source; their conditions may differ.

Data set [1] deals with mice. The experiment in a line: open field. Format: in vivo, mouse. As to conditions: 10 mg/kg i.p., 1 hour; vehicle had the same effect. The method, then: Open field. […] Movement in the maze was video recorded for 10 minutes via ceiling-mounted cameras and tracked using a custom script in MATLAB-2015b. The script outputs total distance traveled and path tracking.
Data set [2] deals with eIF4E phosphorylation at serine 209. As to conditions: in vitro, tumor cell lines; read-out: IC50, reduction of eIF4E phosphorylation at serine 209; cited from earlier work.
The subject of data set [3] is models which harbor activating MyD88 mutations. As to conditions: in vivo, multiple models; cited from earlier work.
Data set [4] deals with mice. The experiment in a line: marble burying task. Format: in vivo, mouse. As to conditions: 10 mg/kg p.o. daily for 7 days, vs WT naïve. The method, then:
Marble burying task. The marble burying task was used to assess obsessive compulsive disorder (OCD)-like behaviors as previously described^28. Nineteen marbles were placed on top of 5 cm of standard bedding in a clean cage. A mouse was placed into the cage for 30 minutes and then the number of buried marbles was counted.

A further data set has as its system paclitaxel-treated mice. The experiment in a line: thermal latency (Hot/Cold plate) in paclitaxel-induced CIPN. Format: in vivo, mouse. As to conditions: for thermal hyperalgesia: acute treatment. The method, then:
Thermal and mechanical testing. Mice were housed on 12-hr light-/dark cycles with lights on at 7:00 AM. Mice had food and water available ad libitum. All behavioral experiments were performed between the hours of 9:00 AM and 6:00 PM. Mice were randomized to groups from multiple cages to avoid using mice from experimental groups that were cohabitating. Sample size was estimated as […] using a power calculation with 80% power, expectations of 50% effect size, with alpha set to 0.05. The number of animals used in each experiment was based on available animals of the appropriate sex and age but was at least n=5 for experiments. Standard deviation for power calculations was based on previously published data using similar models. Mice were habituated for 1 hr to clear acrylic behavioral chambers before beginning the experiment. Mechanical paw withdrawal thresholds were measured using the up-down method (Chaplan et al., 1994) with calibrated Von Frey filaments (Stoelting Company, Wood Dale, Ill.). Thermal latency was measured using a Hot/Cold plate setting the temperature at 49, 50 and 52° C. […] The experimenter was blinded to the genotype of the mice and drug condition in all experiments.

The next data set has as its system SNI mice. The experiment in a line: conditioned place preference (CPP) after SNI. Format: in vivo, mouse. As to conditions: WT SNI, 10 mg/kg i.p., single conditioning day. The method, then:
Conditioned Place Preference. A previously published CPP protocol from the Walters laboratory protocol was used (Yang et al., 2014). The CPP box consisted of one black and one white chamber connected by a striped chamber. CPP was conducted in a dark room with a single low lumens light source (Maia 69E120-WH). The middle chamber of the CPP box was brightly illuminated to discourage mice from spending time in the middle chamber. […] On day 1 of testing (preconditioning), each mouse was permitted to explore the middle and black (but not white) chambers for 30 minutes. […] On the last day of CPP, each mouse was placed in the middle chamber with unrestricted access to all chambers and video-recorded for 10 min. Data are presented as the percent change in time spent in the drug-paired chambered compared to the control (vehicle or sham for each genotype or surgery). This was calculated by dividing each animal's time spent in the white box by the control average, multiplying by 100 and then subtracting 100.
Surgery. Spared nerve injury (SNI) was performed by the ligation and cutting of the tibial and peroneal branches of the left sciatic nerve trifurcation, leaving the sural branch intact as previously described (Decosterd and Woolf, 2000). Sham surgeries were performed the same way but without cutting the nerve. Mice were allowed to recover for 2 weeks following surgery.

The test system of data set [5] is mice. Briefly: rotarod. Format: in vivo, mouse. As to conditions: 10 mg/kg i.p., 1 hour. The method, then: Rotarod. Motor function was assessed using a rotarod (IITC Life Science rotarod series 8) with ramp speed (20 rpm acceleration) at a starting speed of […] for a maximum of 120s. The time until each animal fell was recorded for each trial. Naïve mice were trained for 1 trial, and then 2 baseline trials were conducted and scores for both trials were averaged.

By pIC50 is commonly meant the IC50 on a negative log10 scale, so that one unit is a factor of ten.

For the compound `Cc1cc(Nc2cc(N)ncn2)c(=O)n2c1C(=O)NC21CCCCC1` [eFT508, Tomivosertib], the “movement speed in the open field vs naïve mice” value in the data set on mice [1] is “moved significantly slower”. The pIC50 in data set [2] is 7.80 to 8.70. Further, in data set [3], the anti-tumor activity entry is “significant anti-tumor activity”. Moreover, the marble burying result in the data set with mice [4] is “no differences in marble burying; also recorded: performed similarly to naïve and vehicle-controls”. The thermal hypersensitivity result in the data set on paclitaxel-treated mice (10 mg/kg after full development of CIPN) was “reversal”. For the same compound, the figures for the thermal hyperalgesia entry with paclitaxel-treated mice (at 3 hrs) and in the data set on paclitaxel-treated mice (at 24 hrs) were “did not significantly attenuate” and “a significant effect was observed”, respectively. Besides, the “more time in the drug-paired (white) chamber vs SNI animals that received vehicle” value with SNI mice is listed as around 40%. For the same compound, the “rotarod performance vs naïve mice” value in the data set on mice [5] is “no significant difference”.
